Results reported in ChEMBL document CHEMBL3232928, “Fragment-to-hit-to-lead discovery of a novel pyridylurea scaffold of ATP competitive dual targeting type II topoisomerase inhibiting antibacterial agents” (J Med Chem, 2013).
≈ marks a conversion by molar mass, not a printed value.

Test system: Staphylococcus aureus
Assay: Inhibition of DNA synthesis in methicillin-sensitive wild type Staphylococcus aureus over 1 hr by [3H]thymidine incorporation assay
Assay type: functional, organism-based
Details: not given

Row | Structure (SMILES) | IC50
1 | O=C(O)c1cn(C2CC2)c2cc(N3CCNCC3)c(F)cc2c1=O [CIPROFLOXACIN] | 3.9 µM

Test system: Staphylococcus aureus
Assay: Inhibition of RNA synthesis in methicillin-sensitive wild type Staphylococcus aureus over 1 hr by [3H]uridine incorporation assay
Assay type: functional, organism-based
Details: not given

Row | Structure (SMILES) | IC50
2 | O=C(O)c1cn(C2CC2)c2cc(N3CCNCC3)c(F)cc2c1=O [CIPROFLOXACIN] | > 195 µM

Test system: Staphylococcus aureus
Assay: Inhibition of protein synthesis in methicillin-sensitive wild type Staphylococcus aureus over 1 hr by [14C]leucine incorporation assay
Assay type: functional, organism-based
Details: not given

Row | Structure (SMILES) | IC50
3 | O=C(O)c1cn(C2CC2)c2cc(N3CCNCC3)c(F)cc2c1=O [CIPROFLOXACIN] | > 174 µM

Test system: Staphylococcus aureus
Assay: Inhibition of protein synthesis in methicillin-sensitive wild type Staphylococcus aureus over 1 hr by [14C]valine incorporation assay
Assay type: functional, organism-based
Details: not given

Row | Structure (SMILES) | IC50
4 | O=C(O)c1cn(C2CC2)c2cc(N3CCNCC3)c(F)cc2c1=O [CIPROFLOXACIN] | > 195 µM

Test system: Staphylococcus aureus
Assay: Inhibition of fatty acid synthesis in methicillin-sensitive wild type Staphylococcus aureus over 1 hr by [14C]acetic acid incorporation assay
Assay type: functional, organism-based
Details: not given

Row | Structure (SMILES) | IC50
5 | O=C(O)c1cn(C2CC2)c2cc(N3CCNCC3)c(F)cc2c1=O [CIPROFLOXACIN] | > 195 µM

Test system: Staphylococcus aureus
Assay: Inhibition of cell wall synthesis in methicillin-sensitive wild type Staphylococcus aureus over 1 hr by [14C]N-acetyl glucosamine incorporation assay
Assay type: functional, organism-based
Details: not given

Row | Structure (SMILES) | IC50
6 | O=C(O)c1cn(C2CC2)c2cc(N3CCNCC3)c(F)cc2c1=O [CIPROFLOXACIN] | > 195 µM

Test system: Streptococcus pneumoniae
Assay: Inhibition of DNA synthesis in Streptococcus pneumoniae D39 over 1 hr by [3H]thymidine incorporation assay
Assay type: functional
Details: not given

Row | Structure (SMILES) | IC50
7 | O=C(O)c1cn(C2CC2)c2cc(N3CCNCC3)c(F)cc2c1=O [CIPROFLOXACIN] | 28 µM

Test system: Streptococcus pneumoniae
Assay: Inhibition of RNA synthesis in Streptococcus pneumoniae D39 over 1 hr by [3H]uridine incorporation assay
Assay type: functional
Details: not given

Row | Structure (SMILES) | IC50
8 | O=C(O)c1cn(C2CC2)c2cc(N3CCNCC3)c(F)cc2c1=O [CIPROFLOXACIN] | > 200 µM

Test system: Streptococcus pneumoniae
Assay: Inhibition of protein synthesis in Streptococcus pneumoniae D39 over 1 hr by [14C]leucine incorporation assay
Assay type: functional
Details: D39, 1 h

Row | Structure (SMILES) | IC50
9 | O=C(O)c1cn(C2CC2)c2cc(N3CCNCC3)c(F)cc2c1=O [CIPROFLOXACIN] | 110 µM

Test system: Streptococcus pneumoniae
Assay: Inhibition of protein synthesis in Streptococcus pneumoniae D39 over 1 hr by [14C]valine incorporation assay
Assay type: functional
Details: D39, 1 h

Row | Structure (SMILES) | IC50
10 | O=C(O)c1cn(C2CC2)c2cc(N3CCNCC3)c(F)cc2c1=O [CIPROFLOXACIN] | > 200 µM

Test system: Streptococcus pneumoniae
Assay: Inhibition of fatty acid synthesis in Streptococcus pneumoniae D39 over 1 hr by [14C]acetic acid incorporation assay
Assay type: functional
Details: D39, 1 h

Row | Structure (SMILES) | IC50
11 | O=C(O)c1cn(C2CC2)c2cc(N3CCNCC3)c(F)cc2c1=O [CIPROFLOXACIN] | > 200 µM

Test system: Streptococcus pneumoniae
Assay: Inhibition of cell wall synthesis in Streptococcus pneumoniae D39 over 1 hr by [14C]N-acetyl glucosamine incorporation assay
Assay type: functional
Details: D39, 1 h

Row | Structure (SMILES) | IC50
12 | O=C(O)c1cn(C2CC2)c2cc(N3CCNCC3)c(F)cc2c1=O [CIPROFLOXACIN] | > 200 µM

Test system: not listed separately
Assay: Antibacterial activity against fluoroquinolone-resistant Streptococcus pneumoniae D39 NCTC 7466 expressing ParE/GyrB T172A mutant assessed as growth inhibition after 18 to 24 hrs by CLSI broth microdilution method
Assay type: functional
Details: not given

Row | Structure (SMILES) | MIC
13 | CN(C)[C@@H]1C(O)=C(C(N)=O)C(=O)[C@@]2(O)C(O)=C3C(=O)c4c(O)cccc4[C@@](C)(O)[C@H]3C[C@@H]12 [TETRACYCLINE] | 0.25 µg/mL (≈ 0.563 µM)
14 | CO[C@@H]1[C@@H](OC(N)=O)[C@@H](O)[C@H](Oc2ccc3c(O)c(NC(=O)c4ccc(O)c(CC=C(C)C)c4)c(=O)oc3c2C)OC1(C)C [NOVOBIOCIN] | 2 µg/mL (≈ 3.26 µM)

Test system: not listed separately
Assay: Antibacterial activity against fluoroquinolone-resistant Streptococcus pneumoniae D39 NCTC 7466 expressing ParE/GyrB K143I mutant assessed as growth inhibition after 18 to 24 hrs by CLSI broth microdilution method
Assay type: functional
Details: not given

Row | Structure (SMILES) | MIC
15 | CN(C)[C@@H]1C(O)=C(C(N)=O)C(=O)[C@@]2(O)C(O)=C3C(=O)c4c(O)cccc4[C@@](C)(O)[C@H]3C[C@@H]12 [TETRACYCLINE] | 0.25 µg/mL (≈ 0.563 µM)
16 | CO[C@@H]1[C@@H](OC(N)=O)[C@@H](O)[C@H](Oc2ccc3c(O)c(NC(=O)c4ccc(O)c(CC=C(C)C)c4)c(=O)oc3c2C)OC1(C)C [NOVOBIOCIN] | 1 µg/mL (≈ 1.63 µM)

Test system: not listed separately
Assay: Antibacterial activity against fluoroquinolone-resistant Streptococcus pneumoniae D39 NCTC 7466 expressing GyrB/ParE T172A mutant assessed as growth inhibition after 18 to 24 hrs by CLSI broth microdilution method
Assay type: functional
Details: not given

Row | Structure (SMILES) | MIC
17 | CN(C)[C@@H]1C(O)=C(C(N)=O)C(=O)[C@@]2(O)C(O)=C3C(=O)c4c(O)cccc4[C@@](C)(O)[C@H]3C[C@@H]12 [TETRACYCLINE] | 0.25 µg/mL (≈ 0.563 µM)
18 | CO[C@@H]1[C@@H](OC(N)=O)[C@@H](O)[C@H](Oc2ccc3c(O)c(NC(=O)c4ccc(O)c(CC=C(C)C)c4)c(=O)oc3c2C)OC1(C)C [NOVOBIOCIN] | 0.25 µg/mL (≈ 0.408 µM)

Test system: not listed separately
Assay: Antibacterial activity against fluoroquinolone-resistant Streptococcus pneumoniae D39 NCTC 7466 expressing GyrB T172A/ParE T172A double mutant assessed as growth inhibition after 18 to 24 hrs by CLSI broth microdilution method
Assay type: functional
Details: not given

Row | Structure (SMILES) | MIC
19 | CN(C)[C@@H]1C(O)=C(C(N)=O)C(=O)[C@@]2(O)C(O)=C3C(=O)c4c(O)cccc4[C@@](C)(O)[C@H]3C[C@@H]12 [TETRACYCLINE] | 0.25 µg/mL (≈ 0.563 µM)
20 | CO[C@@H]1[C@@H](OC(N)=O)[C@@H](O)[C@H](Oc2ccc3c(O)c(NC(=O)c4ccc(O)c(CC=C(C)C)c4)c(=O)oc3c2C)OC1(C)C [NOVOBIOCIN] | 4 µg/mL (≈ 6.53 µM)

Test system: not listed separately
Assay: Antibacterial activity against fluoroquinolone-resistant Streptococcus pneumoniae D39 NCTC 7466 expressing GyrB K143A/ParE T172A double mutant assessed as growth inhibition after 18 to 24 hrs by CLSI broth microdilution method
Assay type: functional
Details: not given

Row | Structure (SMILES) | MIC
21 | CN(C)[C@@H]1C(O)=C(C(N)=O)C(=O)[C@@]2(O)C(O)=C3C(=O)c4c(O)cccc4[C@@](C)(O)[C@H]3C[C@@H]12 [TETRACYCLINE] | 0.25 µg/mL (≈ 0.563 µM)
22 | CO[C@@H]1[C@@H](OC(N)=O)[C@@H](O)[C@H](Oc2ccc3c(O)c(NC(=O)c4ccc(O)c(CC=C(C)C)c4)c(=O)oc3c2C)OC1(C)C [NOVOBIOCIN] | 4 µg/mL (≈ 6.53 µM)

Test system: not listed separately
Assay: Antibacterial activity against fluoroquinolone-resistant Streptococcus pneumoniae D39 NCTC 7466 expressing GyrA S81F/ParC S79F double mutant assessed as growth inhibition after 18 to 24 hrs by CLSI broth microdilution method
Assay type: functional
Details: not given

Row | Structure (SMILES) | MIC
23 | CN(C)[C@@H]1C(O)=C(C(N)=O)C(=O)[C@@]2(O)C(O)=C3C(=O)c4c(O)cccc4[C@@](C)(O)[C@H]3C[C@@H]12 [TETRACYCLINE] | 0.13 µg/mL (≈ 0.293 µM)
24 | CO[C@@H]1[C@@H](OC(N)=O)[C@@H](O)[C@H](Oc2ccc3c(O)c(NC(=O)c4ccc(O)c(CC=C(C)C)c4)c(=O)oc3c2C)OC1(C)C [NOVOBIOCIN] | 0.25 µg/mL (≈ 0.408 µM)

Test system: not listed separately
Assay: Antibacterial activity against fluoroquinolone-resistant Streptococcus pneumoniae D39 NCTC 7466 expressing GyrA S81Y/ParC S79F double mutant assessed as growth inhibition after 18 to 24 hrs by CLSI broth microdilution method
Assay type: functional
Details: not given

Row | Structure (SMILES) | MIC
25 | CN(C)[C@@H]1C(O)=C(C(N)=O)C(=O)[C@@]2(O)C(O)=C3C(=O)c4c(O)cccc4[C@@](C)(O)[C@H]3C[C@@H]12 [TETRACYCLINE] | 0.25 µg/mL (≈ 0.563 µM)
26 | CO[C@@H]1[C@@H](OC(N)=O)[C@@H](O)[C@H](Oc2ccc3c(O)c(NC(=O)c4ccc(O)c(CC=C(C)C)c4)c(=O)oc3c2C)OC1(C)C [NOVOBIOCIN] | 0.25 µg/mL (≈ 0.408 µM)

Test system: not listed separately
Assay: Antibacterial activity against fluoroquinolone-resistant Streptococcus pneumoniae D39 NCTC 7466 expressing GyrA S81F/ParC S79Y double mutant assessed as growth inhibition after 18 to 24 hrs by CLSI broth microdilution method
Assay type: functional
Details: not given

Row | Structure (SMILES) | MIC
27 | CN(C)[C@@H]1C(O)=C(C(N)=O)C(=O)[C@@]2(O)C(O)=C3C(=O)c4c(O)cccc4[C@@](C)(O)[C@H]3C[C@@H]12 [TETRACYCLINE] | 0.13 µg/mL (≈ 0.293 µM)
28 | CO[C@@H]1[C@@H](OC(N)=O)[C@@H](O)[C@H](Oc2ccc3c(O)c(NC(=O)c4ccc(O)c(CC=C(C)C)c4)c(=O)oc3c2C)OC1(C)C [NOVOBIOCIN] | 0.25 µg/mL (≈ 0.408 µM)

Test system: Streptococcus pneumoniae
Assay: microbe, parasite or virus in culture
Details: not given

Row | Structure (SMILES) | MIC
29 | CN(C)[C@@H]1C(O)=C(C(N)=O)C(=O)[C@@]2(O)C(O)=C3C(=O)c4c(O)cccc4[C@@](C)(O)[C@H]3C[C@@H]12 [TETRACYCLINE] | 0.25 µg/mL (≈ 0.563 µM)
30 | CO[C@@H]1[C@@H](OC(N)=O)[C@@H](O)[C@H](Oc2ccc3c(O)c(NC(=O)c4ccc(O)c(CC=C(C)C)c4)c(=O)oc3c2C)OC1(C)C [NOVOBIOCIN] | 0.5 µg/mL (≈ 0.816 µM)
